From ChEMBL document CHEMBL3991601, “The target landscape of clinical kinase drugs” (Science, 2017)
Calls of active or inactive are those of the source. Rule as the data show it, for most assays here: actives have a measured Kd and inactives only a lower limit.

Assays:
[1] = target: T1, TGF-beta receptor type-1 (Homo sapiens, UniProt P36897)
T1 sequence (P36897 whole entry): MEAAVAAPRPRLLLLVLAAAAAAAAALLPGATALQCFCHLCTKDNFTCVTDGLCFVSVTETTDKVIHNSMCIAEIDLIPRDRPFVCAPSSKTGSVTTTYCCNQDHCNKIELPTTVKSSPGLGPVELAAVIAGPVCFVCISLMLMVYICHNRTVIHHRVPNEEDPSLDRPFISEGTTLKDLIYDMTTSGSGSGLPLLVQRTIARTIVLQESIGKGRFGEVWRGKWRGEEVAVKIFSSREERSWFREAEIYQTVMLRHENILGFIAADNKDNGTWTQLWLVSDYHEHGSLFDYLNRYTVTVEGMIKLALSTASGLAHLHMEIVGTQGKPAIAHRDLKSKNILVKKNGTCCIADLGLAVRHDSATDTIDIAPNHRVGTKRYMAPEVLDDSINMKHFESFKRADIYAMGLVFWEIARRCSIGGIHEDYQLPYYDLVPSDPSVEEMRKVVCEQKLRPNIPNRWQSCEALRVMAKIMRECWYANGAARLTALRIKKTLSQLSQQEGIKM

[2] = target: Calcium/calmodulin-dependent protein kinase type II subunit delta (Homo sapiens, UniProt Q13557)
Sequence of Calcium/calmodulin-dependent protein kinase type II subunit delta (Q13557 whole entry): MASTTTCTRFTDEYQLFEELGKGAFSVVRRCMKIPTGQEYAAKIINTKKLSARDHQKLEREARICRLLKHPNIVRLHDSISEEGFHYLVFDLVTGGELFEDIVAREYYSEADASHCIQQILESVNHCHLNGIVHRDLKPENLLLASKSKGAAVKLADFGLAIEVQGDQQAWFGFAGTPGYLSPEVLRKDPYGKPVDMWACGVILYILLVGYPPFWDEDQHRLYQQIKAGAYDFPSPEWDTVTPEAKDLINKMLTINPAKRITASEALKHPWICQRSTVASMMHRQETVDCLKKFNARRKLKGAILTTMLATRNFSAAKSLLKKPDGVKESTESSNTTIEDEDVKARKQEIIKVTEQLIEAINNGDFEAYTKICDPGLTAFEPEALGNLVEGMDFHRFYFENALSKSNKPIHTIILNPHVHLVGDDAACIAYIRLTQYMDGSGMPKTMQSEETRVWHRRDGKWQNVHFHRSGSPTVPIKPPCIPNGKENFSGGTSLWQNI

[3] = target: T2, Mitogen-activated protein kinase kinase kinase 3 (Homo sapiens, UniProt Q99759)
T2 sequence (Q99759 whole entry): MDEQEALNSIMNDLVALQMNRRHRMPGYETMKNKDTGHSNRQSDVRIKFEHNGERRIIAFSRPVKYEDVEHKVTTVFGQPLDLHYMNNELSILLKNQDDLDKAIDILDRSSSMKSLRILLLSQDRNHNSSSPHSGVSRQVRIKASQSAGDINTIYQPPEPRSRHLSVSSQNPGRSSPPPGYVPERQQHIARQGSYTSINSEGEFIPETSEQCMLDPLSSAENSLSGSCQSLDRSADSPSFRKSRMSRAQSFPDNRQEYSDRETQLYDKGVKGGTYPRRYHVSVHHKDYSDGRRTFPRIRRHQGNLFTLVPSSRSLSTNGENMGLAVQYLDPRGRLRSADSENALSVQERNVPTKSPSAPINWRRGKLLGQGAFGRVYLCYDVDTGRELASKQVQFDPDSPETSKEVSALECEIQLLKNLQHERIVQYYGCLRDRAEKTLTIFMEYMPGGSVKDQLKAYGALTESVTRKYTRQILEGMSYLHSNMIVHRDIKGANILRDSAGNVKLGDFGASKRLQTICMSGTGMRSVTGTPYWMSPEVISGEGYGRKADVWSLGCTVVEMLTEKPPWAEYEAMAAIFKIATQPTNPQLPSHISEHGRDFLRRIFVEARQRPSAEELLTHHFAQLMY

[4] = target: Maternal embryonic leucine zipper kinase (Homo sapiens, UniProt Q14680)
Sequence of Maternal embryonic leucine zipper kinase (Q14680 whole entry): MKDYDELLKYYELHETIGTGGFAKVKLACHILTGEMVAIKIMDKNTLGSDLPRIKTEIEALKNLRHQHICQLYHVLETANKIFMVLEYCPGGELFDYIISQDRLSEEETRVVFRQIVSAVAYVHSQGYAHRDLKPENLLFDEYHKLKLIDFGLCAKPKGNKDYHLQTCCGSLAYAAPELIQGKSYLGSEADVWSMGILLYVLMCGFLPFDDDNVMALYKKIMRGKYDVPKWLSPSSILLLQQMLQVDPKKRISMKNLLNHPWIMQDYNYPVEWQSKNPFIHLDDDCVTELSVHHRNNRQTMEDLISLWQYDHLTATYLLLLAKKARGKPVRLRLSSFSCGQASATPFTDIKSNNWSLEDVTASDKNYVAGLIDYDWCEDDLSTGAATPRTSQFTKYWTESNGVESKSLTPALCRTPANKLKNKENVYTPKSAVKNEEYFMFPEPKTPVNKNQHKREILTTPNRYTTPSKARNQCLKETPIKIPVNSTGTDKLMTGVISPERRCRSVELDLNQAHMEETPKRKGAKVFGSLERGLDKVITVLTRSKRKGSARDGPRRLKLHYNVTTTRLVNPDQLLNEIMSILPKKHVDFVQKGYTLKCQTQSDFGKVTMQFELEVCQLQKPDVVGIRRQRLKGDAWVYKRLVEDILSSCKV

[5] = target: T3, Interleukin-1 receptor-associated kinase 3 (Homo sapiens, UniProt Q9Y616)
T3 sequence (Q9Y616 whole entry): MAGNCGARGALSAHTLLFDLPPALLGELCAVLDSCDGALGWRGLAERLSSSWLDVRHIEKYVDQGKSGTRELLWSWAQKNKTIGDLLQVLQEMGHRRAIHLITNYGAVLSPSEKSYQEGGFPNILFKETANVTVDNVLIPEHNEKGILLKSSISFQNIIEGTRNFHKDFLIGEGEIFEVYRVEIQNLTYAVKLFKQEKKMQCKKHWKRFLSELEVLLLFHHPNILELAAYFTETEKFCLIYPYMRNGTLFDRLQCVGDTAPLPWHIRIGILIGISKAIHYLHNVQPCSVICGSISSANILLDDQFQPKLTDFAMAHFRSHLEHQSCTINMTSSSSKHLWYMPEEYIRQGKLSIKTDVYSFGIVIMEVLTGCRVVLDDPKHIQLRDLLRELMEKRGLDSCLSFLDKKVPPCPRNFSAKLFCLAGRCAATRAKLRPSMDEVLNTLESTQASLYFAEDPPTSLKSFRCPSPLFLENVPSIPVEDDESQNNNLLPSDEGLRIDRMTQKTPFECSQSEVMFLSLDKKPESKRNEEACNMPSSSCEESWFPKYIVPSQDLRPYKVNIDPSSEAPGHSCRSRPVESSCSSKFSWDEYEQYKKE

[6] = target: Ras-related protein Rab-6A (Homo sapiens, UniProt P20340)
Sequence of Ras-related protein Rab-6A (P20340 whole entry): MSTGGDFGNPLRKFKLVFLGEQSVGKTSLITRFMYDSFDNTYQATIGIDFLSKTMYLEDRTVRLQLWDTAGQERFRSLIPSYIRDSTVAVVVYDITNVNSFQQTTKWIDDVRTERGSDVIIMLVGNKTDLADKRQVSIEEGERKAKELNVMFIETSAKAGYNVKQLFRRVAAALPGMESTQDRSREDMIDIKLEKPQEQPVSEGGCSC

[7] = target: MAP/microtubule affinity-regulating kinase 3 (Homo sapiens, UniProt P27448)
Sequence of MAP/microtubule affinity-regulating kinase 3 (P27448 whole entry): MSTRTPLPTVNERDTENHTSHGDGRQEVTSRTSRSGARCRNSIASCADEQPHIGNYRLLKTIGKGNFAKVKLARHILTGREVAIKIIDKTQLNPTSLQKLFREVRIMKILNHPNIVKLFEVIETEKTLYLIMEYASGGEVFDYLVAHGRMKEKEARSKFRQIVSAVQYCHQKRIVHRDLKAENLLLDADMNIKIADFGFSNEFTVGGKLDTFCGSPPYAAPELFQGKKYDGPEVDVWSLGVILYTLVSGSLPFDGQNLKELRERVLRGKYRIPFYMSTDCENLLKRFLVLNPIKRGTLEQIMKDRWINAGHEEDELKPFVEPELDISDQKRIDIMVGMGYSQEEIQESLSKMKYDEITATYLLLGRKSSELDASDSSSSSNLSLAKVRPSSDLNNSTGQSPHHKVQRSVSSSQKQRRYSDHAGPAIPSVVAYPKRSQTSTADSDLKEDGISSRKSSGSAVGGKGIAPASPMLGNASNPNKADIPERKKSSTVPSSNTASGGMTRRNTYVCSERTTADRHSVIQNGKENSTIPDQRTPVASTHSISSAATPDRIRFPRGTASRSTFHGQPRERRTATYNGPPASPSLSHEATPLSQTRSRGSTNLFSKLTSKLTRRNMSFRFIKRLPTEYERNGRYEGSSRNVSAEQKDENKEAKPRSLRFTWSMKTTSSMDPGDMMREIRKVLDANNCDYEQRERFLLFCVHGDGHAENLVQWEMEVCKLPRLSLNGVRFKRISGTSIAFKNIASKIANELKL

[8] = target: T4, Mitogen-activated protein kinase kinase kinase 2 (Homo sapiens, UniProt Q9Y2U5)
T4 sequence (Q9Y2U5 whole entry): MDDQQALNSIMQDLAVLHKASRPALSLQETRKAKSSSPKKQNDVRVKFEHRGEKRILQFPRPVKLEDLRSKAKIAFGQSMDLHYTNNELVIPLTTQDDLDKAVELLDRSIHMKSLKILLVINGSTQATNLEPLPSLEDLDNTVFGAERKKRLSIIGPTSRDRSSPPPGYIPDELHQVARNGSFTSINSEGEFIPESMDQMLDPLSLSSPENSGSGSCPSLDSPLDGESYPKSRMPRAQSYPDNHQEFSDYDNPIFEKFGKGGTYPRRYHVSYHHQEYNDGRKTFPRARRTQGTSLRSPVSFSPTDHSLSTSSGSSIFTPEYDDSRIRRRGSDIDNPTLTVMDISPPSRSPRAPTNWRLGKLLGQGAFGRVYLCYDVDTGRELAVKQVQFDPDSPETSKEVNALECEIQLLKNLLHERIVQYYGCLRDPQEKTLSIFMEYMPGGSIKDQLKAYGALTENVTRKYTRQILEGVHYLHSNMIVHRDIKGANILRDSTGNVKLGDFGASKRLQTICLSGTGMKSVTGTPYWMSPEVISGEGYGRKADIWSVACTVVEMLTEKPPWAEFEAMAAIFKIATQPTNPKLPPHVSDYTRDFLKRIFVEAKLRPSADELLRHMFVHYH

[9] = target: Interleukin-1 receptor-associated kinase 1 (Homo sapiens, UniProt P51617)
Sequence of Interleukin-1 receptor-associated kinase 1 (P51617 whole entry): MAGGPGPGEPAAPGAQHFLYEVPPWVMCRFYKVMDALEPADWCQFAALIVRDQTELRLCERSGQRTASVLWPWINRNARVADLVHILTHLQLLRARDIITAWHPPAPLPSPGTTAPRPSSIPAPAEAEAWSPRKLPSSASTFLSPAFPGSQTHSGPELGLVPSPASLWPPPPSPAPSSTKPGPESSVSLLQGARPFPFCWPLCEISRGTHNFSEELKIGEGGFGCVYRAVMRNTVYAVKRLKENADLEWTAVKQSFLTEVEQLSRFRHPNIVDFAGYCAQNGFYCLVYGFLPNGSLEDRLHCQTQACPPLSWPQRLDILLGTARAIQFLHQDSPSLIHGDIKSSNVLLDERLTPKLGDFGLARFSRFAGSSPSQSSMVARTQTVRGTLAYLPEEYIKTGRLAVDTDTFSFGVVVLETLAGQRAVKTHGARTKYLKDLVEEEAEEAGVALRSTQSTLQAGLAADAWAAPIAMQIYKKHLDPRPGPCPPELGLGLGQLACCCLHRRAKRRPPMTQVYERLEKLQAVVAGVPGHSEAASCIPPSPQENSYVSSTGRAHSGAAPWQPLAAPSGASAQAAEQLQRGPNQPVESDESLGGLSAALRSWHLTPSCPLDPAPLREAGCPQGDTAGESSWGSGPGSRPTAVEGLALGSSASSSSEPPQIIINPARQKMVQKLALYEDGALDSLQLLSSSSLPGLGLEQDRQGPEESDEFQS
Also: in the data inactive means no Kd found up to 30 µM.

SMILES | Kd [1] | Kd [2] | Kd [3] | Kd [4] | Kd [5] | Kd [6] | Kd [7] | Kd [8] | Kd [9]
N[C@@H]1CCCN(c2c(/C=C3\SC(=O)NC3=O)cccc2-c2ccccc2)C1 | > 30 µM (inactive) | > 30 µM (inactive) | > 30 µM (inactive) | > 30 µM (inactive) | > 30 µM (inactive) | > 30 µM (inactive) | > 30 µM (inactive) | > 30 µM (inactive) | > 30 µM (inactive)
Cc1ccc(S(=O)(=O)Nc2nc3ccccc3nc2Nc2ccc3nsnc3c2)cc1 | > 30 µM (inactive) | > 30 µM (inactive) | > 30 µM (inactive) | > 30 µM (inactive) | > 30 µM (inactive) | > 30 µM (inactive) | > 30 µM (inactive) | > 30 µM (inactive) | > 30 µM (inactive)
CN1CC[C@@H](c2c(O)cc(O)c3c(=O)cc(-c4ccccc4Cl)oc23)[C@@H]1CO | > 30 µM (inactive) | > 30 µM (inactive) | > 30 µM (inactive) | > 30 µM (inactive) | > 30 µM (inactive) | > 30 µM (inactive) | > 30 µM (inactive) | > 30 µM (inactive) | > 30 µM (inactive)
Cc1cc(-c2cc(O)ccc2Cl)cc2nnc(Nc3ccc(OCCN4CCCC4)cc3)nc12 | 0.002 µM (active) | > 30 µM (inactive) | > 30 µM (inactive) | > 30 µM (inactive) | > 30 µM (inactive) | > 30 µM (inactive) | > 30 µM (inactive) | > 30 µM (inactive) | > 30 µM (inactive)
CCN1CCN(Cc2ccc(-c3cc4c(N[C@H](C)c5ccccc5)ncnc4[nH]3)cc2)CC1 [AEE-788] | > 30 µM (inactive) | > 30 µM (inactive) | > 30 µM (inactive) | > 30 µM (inactive) | > 30 µM (inactive) | > 30 µM (inactive) | > 30 µM (inactive) | > 30 µM (inactive) | > 30 µM (inactive)
Cn1ncc(Cl)c1-c1cc(C(=O)N[C@H](CN)Cc2cccc(F)c2)sc1Cl [AFURESERTIB] | > 30 µM (inactive) | > 30 µM (inactive) | > 30 µM (inactive) | > 30 µM (inactive) | > 30 µM (inactive) | > 30 µM (inactive) | > 30 µM (inactive) | > 30 µM (inactive) | > 30 µM (inactive)
CNS(=O)(=O)Nc1nccc(Cc2c(C)c3ccc(Oc4ncccn4)cc3oc2=O)c1F [AVUTOMETINIB] | > 30 µM (inactive) | > 30 µM (inactive) | > 30 µM (inactive) | > 30 µM (inactive) | > 30 µM (inactive) | > 30 µM (inactive) | > 30 µM (inactive) | > 30 µM (inactive) | > 30 µM (inactive)
Cc1ccc(NC(=O)c2ccc(CN3CC[C@H](N(C)C)C3)c(C(F)(F)F)c2)cc1Nc1nccc(-c2cncnc2)n1 [BAFETINIB] | > 30 µM (inactive) | > 30 µM (inactive) | > 30 µM (inactive) | > 30 µM (inactive) | > 30 µM (inactive) | – | > 30 µM (inactive) | > 30 µM (inactive) | 2.06 µM
CNC(=O)c1ccc(-c2cnc3ncc(Cc4ccc5ncccc5c4)n3n2)cc1F [CAPMATINIB] | > 30 µM (inactive) | > 30 µM (inactive) | > 30 µM (inactive) | > 30 µM (inactive) | > 30 µM (inactive) | – | > 30 µM (inactive) | > 30 µM (inactive) | > 30 µM (inactive)
CN1CCN(c2ccc3nc(-c4c(N)c5c(F)cccc5[nH]c4=O)[nH]c3c2)CC1 [DOVITINIB] | – | – | – | – | – | > 30 µM (inactive) | – | – | –
COc1cc2nccc(Oc3ccc(NC(=O)NC4CC4)c(Cl)c3)c2cc1C(N)=O [LENVATINIB] | > 30 µM (inactive) | > 30 µM (inactive) | > 30 µM (inactive) | > 30 µM (inactive) | > 30 µM (inactive) | > 30 µM (inactive) | > 30 µM (inactive) | – | –
Cc1cn(-c2cc(NC(=O)c3ccc(C)c(Nc4nccc(-c5cccnc5)n4)c3)cc(C(F)(F)F)c2)cn1 [NILOTINIB] | – | – | – | – | – | > 30 µM (inactive) | – | – | –
O=C(Nc1cccc(Cl)c1)Nc1ncc(CCNc2ncnc3ccsc23)s1 [SNS-314] | > 30 µM (inactive) | – | > 30 µM (inactive) | – | > 30 µM (inactive) | > 30 µM (inactive) | – | > 30 µM (inactive) | –
Nc1nc(N)c2nc(-c3cccc(O)c3)c(-c3cccc(O)c3)nc2n1 [TG100-115] | – | – | – | – | – | > 30 µM (inactive) | – | – | –
CN1N=C(N)c2cn([C@@H]3O[C@H](COP(=O)(O)O)[C@@H](O)[C@H]3O)c3ncnc1c23 [TRICIRIBINE PHOSPHATE] | > 30 µM (inactive) | > 30 µM (inactive) | > 30 µM (inactive) | > 30 µM (inactive) | > 30 µM (inactive) | – | > 30 µM (inactive) | > 30 µM (inactive) | > 30 µM (inactive)

Other lines, results leading:

Kd [1] | Kd [2] | Kd [3] | Kd [4] | Kd [5] | Kd [6] | Kd [7] | Kd [8] | Kd [9] | SMILES
> 30 µM (inactive) | 0.704 µM (active) | > 30 µM (inactive) | > 30 µM (inactive) | > 30 µM (inactive) | > 30 µM (inactive) | > 30 µM (inactive) | > 30 µM (inactive) | > 30 µM (inactive) | COc1cc(N2CCC(N3CCN(C)CC3)CC2)ccc1Nc1ncnc(Nc2ccccc2S(=O)(=O)C(C)C)n1 [ASP-3026]
> 30 µM (inactive) | > 30 µM (inactive) | > 30 µM (inactive) | > 30 µM (inactive) | > 30 µM (inactive) | > 30 µM (inactive) | 9.02 µM (active) | > 30 µM (inactive) | > 30 µM (inactive) | COc1cc(CCc2cc(NC(=O)c3ccc(N4C[C@@H](C)N[C@@H](C)C4)cc3)n[nH]2)cc(OC)c1 [AZD-4547]
– | – | > 30 µM (inactive) | – | 0.057 µM (active) | > 30 µM (inactive) | – | > 30 µM (inactive) | – | Cc1nc(N)sc1-c1ccnc(Nc2ccc(N3CCOCC3)cc2)n1 [CYC-116]
> 30 µM (inactive) | – | > 30 µM (inactive) | – | > 30 µM (inactive) | > 30 µM (inactive) | – | – | – | Cc1cc(Nc2cc(N3CCN(C)CC3)nc(/C=C/c3ccccc3)n2)n[nH]1 [ENMD-2076]
– | – | – | – | – | > 30 µM (inactive) | – | – | – | CCn1c(-c2nonc2N)nc2c(C#CC(C)(C)O)ncc(OC[C@H]3CCCNC3)c21 [GSK-690693]
